Results as given in US20260207563A1, “UREA COMPOUNDS AS ACTIVATORS OF POTASSIUM CHANNELS KV7.2/7.3 USEFUL IN THE TREATMENT OF CNS AND PNS DISORDERS” (ANGELINI PHARMA S.P.A., priority 2022, published 2026).
pEC50: −log10 of the molar value.

Legend:
Type in all cases: cell-based
[1] = target: T1, heteromeric KV7.3/KV7.5 channel (KCNQ3, KCNQ5) (Homo sapiens, UniProt O43525+Q9NR82); experiment: Automated patch-clamp counter-screening against KV7.3/KV7.5 channel; settings: HEK293 cells expressing Kv7.3/KV7.5; class by maximal shift in the Vhalf at 30 μM
T1 construct: host or cells: HEK293
In short: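 HEK293 cells with constitutive Kv7.3 and tetracycline-inducible Kv7.5 were recorded by automated patch clamp. Ten concentrations (1:3 series from 30 μM, quadruplicate) were tested; Vhalf shifts were fitted with a 4-parameter logistic to give EC50 and maximal Vhalf shift, with selectivity based on the shift at 30 μM.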

[2] = target: T2, heteromeric KV7.2/KV7.3 channels (KCNQ2, KCNQ3) (Homo sapiens, UniProt O43525+O43526); experiment: Automated patch-clamp (Sophion Qube 384) potency assay against KV7.2/KV7.3 channels; settings: CHO-K1/Kv7.2/Kv7.3 cells; for pEC50: EC50 from concentration-response of shift in Vhalf, 10 concentrations up to 30 μM, read-out: Kv7.2/7.3 EC50; for Kv7.2/7.3 ΔV1/2: maximal shift in the Vhalf from the top of the curve
T2 construct: expressed in transfected cells; host or cells: CHO-K1
In short: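 Whole-cell automated patch clamp on CHO-K1 cells stably expressing human KV7.2/KV7.3, held at −80 mV; I-V steps −100 to +20 mV (1 s) with 0 mV tail pulses, Boltzmann-fitted activation curves. Ten concentrations (1:3 from 30 μM, quadruplicate) versus 0.3% DMSO control; EC50 and maximal shift from 4-parameter fits of Vhalf shift.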

[3] = target: T3, homomeric KV7.4 channel (KCNQ4) (Homo sapiens, UniProt P56696); experiment: Automated patch-clamp (Qube) counter-screening assay against KV7.4 channel; settings: CHO-K1 cells expressing KV7.4; class by maximal shift in the Vhalf at 30 μM
T3 construct: host or cells: CHO-K1
In short: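 CHO-K1 cells stably expressing homomeric human KV7.4 were recorded on the Qube automated patch clamp. Ten concentrations (1:3 dilutions from 30 μM) were tested in quadruplicate. The mean Vhalf shift was fitted with a 4-parameter logistic to give EC50 and maximal Vhalf shift, and selectivity was based on the shift at 30 μM.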

| pEC50 [2] | Kv7.2/7.3 ΔV1/2 [2] [mV] | Compound | Kv7.3/7.5 selectivity criteria [1] | Kv7.4 selectivity criteria [3] |
| --- | --- | --- | --- | --- |
| 5.91 | 25.3 | COc1cc2c(cc1F)CC[C@H]2NC(=O)NCc1ccnc(OCC(F)(F)F)c1 [Compound 164] | A (Selective compounds showed Kv7.4 and/or Kv7.3/7.5 ΔV1/2 equal to or lower than 15 mV (letter A in table 3)) | A (Selective compounds showed Kv7.4 and/or Kv7.3/7.5 ΔV1/2 equal to or lower than 15 mV (letter A in table 3)) |
| 5.02 | 30.26 | O=C(NCc1ccnc(OCC(F)(F)F)c1)N[C@H]1c2ccccc2C[C@H]1O [Compound 155] | B (Non-selective compounds showed Kv7.4 and/or Kv7.3/7.5 ΔV1/2 higher than 15 mV (letter B in table 3)) | B (Non-selective compounds showed Kv7.4 and/or Kv7.3/7.5 ΔV1/2 higher than 15 mV (letter B in table 3)) |
| 6.12 | 53.72 | O=C(NCc1ccnc(OCC(F)(F)F)c1)NC1CCCCC1 [Compound 43, 1-Cyclohexyl-3-((2-(2,2,2-trifluoroethoxy)pyridin-4-yl)methyl)urea] | B (Non-selective compounds showed Kv7.4 and/or Kv7.3/7.5 ΔV1/2 higher than 15 mV (letter B in table 3)) | B (Non-selective compounds showed Kv7.4 and/or Kv7.3/7.5 ΔV1/2 higher than 15 mV (letter B in table 3)) |
| 5.59 | 31.18 | N#Cc1cccc2c1CC[C@H]2NC(=O)NCc1ccnc(OCC(F)(F)F)c1 [Compound 158] | B (Non-selective compounds showed Kv7.4 and/or Kv7.3/7.5 ΔV1/2 higher than 15 mV (letter B in table 3)) | B (Non-selective compounds showed Kv7.4 and/or Kv7.3/7.5 ΔV1/2 higher than 15 mV (letter B in table 3)) |
| 6.26 | 32.37 | O=C(NCc1ccnc(OCC(F)(F)F)c1)Nc1cc(F)cc(Cl)c1 [Compound 77, 1-(3-Chloro-5-fluorophenyl)-3-((2-(2,2,2-trifluoroethoxy)pyridin-4-yl)methyl)urea] | A (Selective compounds showed Kv7.4 and/or Kv7.3/7.5 ΔV1/2 equal to or lower than 15 mV (letter A in table 3)) | B (Non-selective compounds showed Kv7.4 and/or Kv7.3/7.5 ΔV1/2 higher than 15 mV (letter B in table 3)) |
| 6.06 | 16.7 | O=C(NCc1cccc(F)c1)NCc1ccnc(OCC(F)(F)F)c1 [Compound 42, 1-(3-Fluorobenzyl)-3-((2-(2,2,2-trifluoroethoxy)pyridin-4-yl)methyl)urea] | A (Selective compounds showed Kv7.4 and/or Kv7.3/7.5 ΔV1/2 equal to or lower than 15 mV (letter A in table 3)) | A (Selective compounds showed Kv7.4 and/or Kv7.3/7.5 ΔV1/2 equal to or lower than 15 mV (letter A in table 3)) |
| 5.21 | 20.12 | O=C(NCCC1(C(F)(F)F)CC1)NCc1ccnc(NCC(F)(F)F)c1 [Compound 16, 1-((2-((2,2,2-Trifluoroethyl)amino)pyridin-4-yl)methyl)-3-(2-(1-(trifluoromethyl)cyclopropyl)ethyl)urea] | A (Selective compounds showed Kv7.4 and/or Kv7.3/7.5 ΔV1/2 equal to or lower than 15 mV (letter A in table 3)) | A (Selective compounds showed Kv7.4 and/or Kv7.3/7.5 ΔV1/2 equal to or lower than 15 mV (letter A in table 3)) |
| 5.73 | 27.66 | O=C(NCCC1(C(F)(F)F)CC1)NCc1cc(OCC(F)(F)F)ncc1F [Compound 87, 1-((5-Fluoro-2-(2,2,2-trifluoroethoxy)pyridin-4-yl)methyl)-3-(2-(1-(trifluoromethyl)cyclopropyl)ethyl)urea] | A (Selective compounds showed Kv7.4 and/or Kv7.3/7.5 ΔV1/2 equal to or lower than 15 mV (letter A in table 3)) | A (Selective compounds showed Kv7.4 and/or Kv7.3/7.5 ΔV1/2 equal to or lower than 15 mV (letter A in table 3)) |
| 5.51 | 43.25 | COc1ccc2c(c1)[C@H](NC(=O)NCc1ccnc(OCC(F)(F)F)c1)CC2 [Compound 134] | B (Non-selective compounds showed Kv7.4 and/or Kv7.3/7.5 ΔV1/2 higher than 15 mV (letter B in table 3)) | A (Selective compounds showed Kv7.4 and/or Kv7.3/7.5 ΔV1/2 equal to or lower than 15 mV (letter A in table 3)) |
| 5.69 | 28.31 | O=C(NCCC1(C(F)(F)F)CC1)NCc1cc(OCC(F)(F)F)ncn1 [Compound 38, 1-((6-(2,2,2-Trifluoroethoxy)pyrimidin-4-yl)methyl)-3-(2-(1-(trifluoromethyl)cyclopropyl)ethyl)urea] | A (Selective compounds showed Kv7.4 and/or Kv7.3/7.5 ΔV1/2 equal to or lower than 15 mV (letter A in table 3)) | A (Selective compounds showed Kv7.4 and/or Kv7.3/7.5 ΔV1/2 equal to or lower than 15 mV (letter A in table 3)) |
| 6.07 | 22.07 | O=C(NCc1ccnc(OCC(F)(F)F)c1)NC1CCc2ccccc21 (stereo not drawn) [Compound 137] | B (Non-selective compounds showed Kv7.4 and/or Kv7.3/7.5 ΔV1/2 higher than 15 mV (letter B in table 3)) | B (Non-selective compounds showed Kv7.4 and/or Kv7.3/7.5 ΔV1/2 higher than 15 mV (letter B in table 3)) |
| 6.51 | 14.75 | O=C(NCc1ccnc(OCC(F)(F)F)c1)NC1CCc2ccc(F)cc21 (racemic) [Compound 81, (±)-1-(6-Fluoro-2,3-dihydro-1H-inden-1-yl)-3-((2-(2,2,2-trifluoroethoxy)pyridin-4-yl)methyl)urea] | A (Selective compounds showed Kv7.4 and/or Kv7.3/7.5 ΔV1/2 equal to or lower than 15 mV (letter A in table 3)) | A (Selective compounds showed Kv7.4 and/or Kv7.3/7.5 ΔV1/2 equal to or lower than 15 mV (letter A in table 3)) |
| 5.32 | 18.69 | O=C(NCCC1(C(F)(F)F)CC1)NCc1ccnc(OCc2ccccn2)c1 [Compound 23, 1-((2-(Pyridin-2-ylmethoxy)pyridin-4-yl)methyl)-3-(2-(1-(trifluoromethyl)cyclopropyl)ethyl)urea] | A (Selective compounds showed Kv7.4 and/or Kv7.3/7.5 ΔV1/2 equal to or lower than 15 mV (letter A in table 3)) | A (Selective compounds showed Kv7.4 and/or Kv7.3/7.5 ΔV1/2 equal to or lower than 15 mV (letter A in table 3)) |
| 5.32 | 16.81 | O=C(NCCC1(C(F)(F)F)CC1)NCc1ccnc(C(F)F)c1 [Compound 109] | A (Selective compounds showed Kv7.4 and/or Kv7.3/7.5 ΔV1/2 equal to or lower than 15 mV (letter A in table 3)) | A (Selective compounds showed Kv7.4 and/or Kv7.3/7.5 ΔV1/2 equal to or lower than 15 mV (letter A in table 3)) |
| 5.87 | 36.08 | O=C(NCc1ccnc(OCC(F)(F)F)c1)NC1CCSc2ccccc21 (stereo not drawn) [Compound 152] | B (Non-selective compounds showed Kv7.4 and/or Kv7.3/7.5 ΔV1/2 higher than 15 mV (letter B in table 3)) | B (Non-selective compounds showed Kv7.4 and/or Kv7.3/7.5 ΔV1/2 higher than 15 mV (letter B in table 3)) |
| 5.12 | 22.67 | O=C(NCCC1(C(F)(F)F)CC1)NCc1ccnc(OCc2ncccc2F)c1 [Compound 54, 1-((2-((3-Fluoropyridin-2-yl)methoxy)pyridin-4-yl)methyl)-3-(2-(1-(trifluoromethyl)cyclopropyl)ethyl)urea] | A (Selective compounds showed Kv7.4 and/or Kv7.3/7.5 ΔV1/2 equal to or lower than 15 mV (letter A in table 3)) | A (Selective compounds showed Kv7.4 and/or Kv7.3/7.5 ΔV1/2 equal to or lower than 15 mV (letter A in table 3)) |
| 6.54 | 33.62 | C[C@@H](Oc1cc(CNC(=O)NCCC2(C(F)(F)F)CC2)ccn1)C(F)(F)F [Compound 51, (R)-1-(2-(1-(Trifluoromethyl)cyclopropyl)ethyl)-3-((2-((1,1,1-trifluoropropan-2-yl)oxy)pyridin-4-yl)methyl)urea] | A (Selective compounds showed Kv7.4 and/or Kv7.3/7.5 ΔV1/2 equal to or lower than 15 mV (letter A in table 3)) | A (Selective compounds showed Kv7.4 and/or Kv7.3/7.5 ΔV1/2 equal to or lower than 15 mV (letter A in table 3)) |
| 5.37 | 23.15 | O=C(NCCC1(C(F)(F)F)CC1)NCc1ccnc(C(F)(F)F)c1 [Compound 69, 1-(2-(1-(Trifluoromethyl)cyclopropyl)ethyl)-3-((2-(trifluoromethyl)pyridin-4-yl)methyl)urea] | A (Selective compounds showed Kv7.4 and/or Kv7.3/7.5 ΔV1/2 equal to or lower than 15 mV (letter A in table 3)) | A (Selective compounds showed Kv7.4 and/or Kv7.3/7.5 ΔV1/2 equal to or lower than 15 mV (letter A in table 3)) |
